Data as given in patent publication US7803382B2, “Method for inducing immune response to NY-CO-58” (Ludwig Institute for Cancer Research Ltd., priority 2001, dated 2010).

Key:
[1] = system: sera from colon cancer patients; assay: Spot assay: reactivity of serologically defined colon cancer antigens with colon cancer patient sera; assay type: binding, human; conditions: reactive sera/sera tested; includes autologous where applicable; sera 1:200
Experimental: Serum samples from patients with colon cancer were screened using a modification of the plaque assay, termed a spot assay. In this method, 80×120 mm nitrocellulose membranes were precoated with a film of NZY/0.7% Agarose/2.5 mM IPTG and placed on a reservoir layer of NZY/0.7% Agarose in a 86×128 mm Omni Tray (Nalge Nunc International Corp., Naperville, Ill.). Approximately 1.0×10^5 pfU of monoclonal phage encoding individual serologically defined colon cancer antigens, in a volume of 20 μl, were mixed with 20 μl of exponentially growing E. coli XL-1 Blue MRF and spotted (0.7-μl aliquots) on the precoated nitrocellulose membranes. Membranes were incubated for 15 hours at 37° C. A total of 75 different serologically defined colon cancer antigens were spotted in duplicate per nitrocellulose membrane. The agarose film was then removed from the membrane and the filters were processed for reactivity with individual serum samples (1:200 dilution), as described in Scanlan, et al., Int. J. Cancer 76:652-658 (1998) and Scanlan, et al., Int. J. Cancer 83:456-64, (1999).

CD4+ T cells = assay: ELISPOT of peptide-stimulated CD4+ T cells from patients; assay type: cell-based, human; conditions: autologous targets presenting peptide
Experimental: Given the correlation between humoral and cellular immunity observed with CT antigens such as NY-ESO-1 (Jager et al. J Exp Med. 1998 Jan. 19; 187(2):265-70) and SSX2 (Ayyoub et al. J Immunol. 2002 Feb. 15; 168(4):1717-22, Tureci et al. Cancer Res. 1996 Oct. 15; 56(20):4766-72.), these two patients were analyzed to look for the presence of T cell responses. Nine long peptides (30AA) were synthesized from the sequence of NY-CO-58 (SEQ ID NO:20) on the basis of the presence of anchor motifs for various class I molecules. Five prediction algorithms were used to map potential these potential anchor motifs which correspond to potential epitopes, resulting in the selection of the following polypeptides: 3-32 (SEQ ID NO:31), 51-80 (SEQ ID NO:35), 151-180 (SEQ ID NO:36), 271-300 (SEQ ID NO:37), 375-404 (SEQ ID NO:38), 403-432 (SEQ ID NO:33), 510-539 (SEQ ID NO:39), 633-662 (SEQ ID NO:40), and 692-721 (SEQ ID NO:34).
CD8^+ and CD4^+ T cells were then purified from peripheral blood lymphocytes (PBLs) from the two patients and were stimulated with these peptides either individually or in pools of 2-3 peptides (Gnjatic et al. J Immunol. 2003 Feb. 1; 170(3):1191-6). The stimulated CD8^+ T cells were then tested for recognition of the same stimulator peptide(s), either individually or pools in standard ELISPOT assays (Jager Proc Natl Acad Sci USA. 2000 Apr. 25; 97(9):4760-5, Gnjatic et al. Proc Natl Acad Sci USA. 2000 Sep. 26; 97(20):10917-22).
In these same patients CD4^+ T cell responses were investigated. CD4^+ T cells were stimulated with the peptides individually or in pools of 2-3 peptides as done with CD8^+ T cells. The stimulated peptides were tested in ELISPOT assays using autologous targets presenting the stimulator peptide(s). […] Recognition of control autologous targets, either unpulsed cells or cells presenting irrelevant peptide.
An additional sample of PBLs was obtained from patient UKE-16. The patient remained positive for serum NY-CO-58 specific antibody. Again, CD4^+ T cells were stimulated with peptides derived from the NY-CO-58 sequence. This time additional “minimal” 12-mer epitopes selected from within the 30-mer polypeptides using the ProPred prediction algorithm (Singh, H. and Raghava, G. P. S. (2001) ProPred: Prediction of HLA-DR binding sites. Bioinformatics, 17(12), 1236-37, Propred server available online from Drs Raghava and Singh, Bioinformatics Center, Institute of Microbial Technology, Chandigarh, India). The 12-mer peptides corresponded to amino acid 15-26 (SEQ ID NO:32) and 699-710 (SEQ ID NO:41) of NY-CO-58 (SEQ ID NO:20). Analysis of the responses was carried out by ELISPOT assay as before. Peptide 15-26 was recognized by CD4^+ T cells from patient UKE-16 and represents a minimal epitope within amino acid 3-32 (SEQ ID NO:31). This also confirmed that the T cell reactivity was specific to the peptides and not due to an irrelevant contaminant, which would be unlikely to be present within two separate batches of synthetic peptides.

splenocytes = assay type: cell-based, HHD mice
[2] = system: peripheral blood lymphocytes; assay type: cell-based, HHD mice

Substance	CD4+ T cell response, ELISPOT (CD4+ T cells; patient UKE-1)	CD4+ T cell response, ELISPOT (CD4+ T cells; patient UKE-16)	ELISPOT response after in vitro restimulation (splenocytes)	ex vivo ELISPOT response from PBL [2]	other results
CO-95 (KIAA1416): serologically defined colon cancer antigen, protein SEQ ID NO:16					Reactivity of individual antigens [1]: 4/75
EIYNGKLFDLLNKKAKLRVLEDGKQQVQVV (listed as Homo sapiens) [peptide 403-432, fragment of NY-CO-58, residues 403-432]	responded				
KHFSALRDVIKALRLAMQLEEQASRQISSK (listed as Homo sapiens) [692-721, fragment of NY-CO-58, residues 692-721]	reactive	reacted very clearly			
KLGLEVYVT (listed as Homo sapiens)			responses were detected	not seen	
LAIKIQRSNGLI (listed as Homo sapiens) [peptide 15-26, minimal 12-mer of NY-CO-58, residues 15-26]		recognized			
LQARLFPGL (listed as Homo sapiens)			responses were detected	not seen	
MDSSLQARLFPGLAIKIQRSNGLIHSANVR (listed as Homo sapiens) [3-32]	reactive	reacted very clearly			
NLEKSCVSV (listed as Homo sapiens)			responses were detected	not seen	
SLLALKECI (listed as Homo sapiens)			confirmed	showed a response	
